Source: ChEMBL document CHEMBL4184281, “Pharmacology and in vivo efficacy of pyridine-pyrimidine amides that inhibit microtubule polymerization” (Bioorg Med Chem Lett, 2018)
Calls of active or inactive are those of the source. The rule behind the calls is not given here.

How the values were obtained:
in vitro [1] = settings: human, Caco-2
Description: Apparent intrinsic permeability in human Caco2 cells from apical to basolateral side after 120 mins by mass spectrometry

in vitro [2] = settings: human, Caco-2; remark: listed apart in the source
Description: Apparent intrinsic permeability in human Caco2 cells from basolateral to apical side after 120 mins by mass spectrometry

[3] = Efflux ratio of apparent intrinsic permeability in human Caco2 cells after 120 mins by mass spectrometry; assay type: ADME, cell-based; settings: Caco-2
[4] = Half life in dog liver microsomes; assay type: ADME, Canis lupus familiaris, microsome
Mus musculus [5] = test: Toxicity in nude BALB/c mouse xenografted with human MFE296 cells assessed as body weight loss at 15 mg/kg, po qd administered via gavage for 10 days measured after 6 days; assay type: organism-based; settings: in vivo, 144 h
SNU-16 [6] = test: Antitumor activity against human SNU16 cells xenografted in nude BALB/c mouse assessed as tumor growth inhibition relative to control; assay type: functional
Breast carcinoma cell [7] = test: Antitumor activity against chemo-refractory disease patient-derived breast cancer cells xenografted in NOD/SCID mouse assessed as tumor growth inhibition at 10 mg/kg, po qd administered via gavage for 15 days; assay type: functional, organism-based; settings: Homo sapiens
A2780 [8] = test: Antitumor activity against human A2780 cells xenografted in nude BALB/c mouse assessed as tumor growth inhibition at 15 mg/kg, po administered every other day measured up to 12 days post dose; assay type: functional, organism-based
Mus musculus [9] = test: Toxicity in NOD/SCID mouse xenografted with chemo-refractory disease patient-derived breast cancer cells at 10 mg/kg, po qd administered via gavage for 60 days; assay type: organism-based; settings: in vivo, 1440 h
Breast carcinoma cell [10] = test: Antitumor activity against chemo-refractory disease patient-derived breast cancer cells xenografted in NOD/SCID mouse assessed as tumor regression at 10 mg/kg, po qd administered via gavage for 60 days; assay type: functional, organism-based; settings: Homo sapiens
[11] = Tmax in CD-1 mouse administered as single po dose by mass spectrometry; assay type: ADME, organism-based; settings: in vivo
Hs-578T [12] = test: Antiproliferative activity against paclitaxel-resistant human Hs 578T cells 20B clone up to 1000 nM after 72 hrs by ATPlite assay; assay type: functional, cell-based
[13] = Unbound fraction in plasma (unknown origin); assay type: ADME, cell-free
Hs-578T [14] = test: Antiproliferative activity against human Hs 578T cells up to 1000 nM after 72 hrs by ATPlite assay; assay type: functional, cell-based
Cytochrome P450 2D6 = Cytochrome P450 2D6 (Homo sapiens, UniProt P10635); test: Inhibition of CYP2D6 (unknown origin); assay type: ADME
Chain of Cytochrome P450 2D6 (P10635 whole entry): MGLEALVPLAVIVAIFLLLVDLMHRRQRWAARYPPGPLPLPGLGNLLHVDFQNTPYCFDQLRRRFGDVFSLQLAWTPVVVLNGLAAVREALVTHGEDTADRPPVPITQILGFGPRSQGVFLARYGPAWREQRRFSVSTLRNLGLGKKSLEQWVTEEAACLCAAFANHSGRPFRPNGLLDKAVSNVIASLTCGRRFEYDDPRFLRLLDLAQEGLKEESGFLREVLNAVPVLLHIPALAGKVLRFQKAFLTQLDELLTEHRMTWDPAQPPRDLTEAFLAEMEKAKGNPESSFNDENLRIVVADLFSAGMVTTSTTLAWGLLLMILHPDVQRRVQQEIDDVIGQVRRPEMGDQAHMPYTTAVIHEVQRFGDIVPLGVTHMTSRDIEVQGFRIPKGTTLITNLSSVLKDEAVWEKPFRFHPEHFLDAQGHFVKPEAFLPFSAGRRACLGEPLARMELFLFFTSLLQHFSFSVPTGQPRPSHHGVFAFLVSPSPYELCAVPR

SNU-16 [15] = test: Antitumor activity against human SNU16 cells harboring luciferase orthotopically implanted in gastric mucosa of Balb/c nude mouse assessed as tumor growth inhibition at 20 mg/kg, po qd administered for 5 days per week for 3 weeks starting from 1 week post tumor implantation by luminescence imaging method; assay type: functional, organism-based
MFE-296 [16] = test: Antitumor activity against human MFE296 cells xenografted in nude BALB/c mouse assessed as tumor growth inhibition at 15 mg/kg, po qd administered via gavage for 10 days; assay type: functional, organism-based
[17] = Half life in human liver microsomes; assay type: ADME, microsome
[18] = Stability in human plasma assessed as parent compound remaining after 75 mins relative to initial time; assay type: ADME, cell-free; settings: read-out: Stability
MDA-MB-436 [19] = test: Antiproliferative activity against paclitaxel-resistant human MDA-MB-436 cells 20B clone up to 1000 nM after 72 hrs by ATPlite assay; assay type: functional, cell-based
[20] = Protein binding in plasma (unknown origin); assay type: ADME, cell-free; settings: read-out: PPB (converted)
[21] = Stability in human plasma assessed as parent compound remaining after 4 hrs relative to initial time; assay type: ADME, cell-free; settings: read-out: Stability
[22] = Half life in mouse liver microsomes; assay type: ADME, microsome
Hs-578T [23] = test: Antiproliferative activity against paclitaxel-resistant human Hs 578T cells 10C clone up to 1000 nM after 72 hrs by ATPlite assay; assay type: functional, cell-based
Cytochrome P450 2C9 = Cytochrome P450 2C9 (Homo sapiens, UniProt P11712); test: Inhibition of CYP2C9 (unknown origin); assay type: ADME
Chain of Cytochrome P450 2C9 (P11712 whole entry): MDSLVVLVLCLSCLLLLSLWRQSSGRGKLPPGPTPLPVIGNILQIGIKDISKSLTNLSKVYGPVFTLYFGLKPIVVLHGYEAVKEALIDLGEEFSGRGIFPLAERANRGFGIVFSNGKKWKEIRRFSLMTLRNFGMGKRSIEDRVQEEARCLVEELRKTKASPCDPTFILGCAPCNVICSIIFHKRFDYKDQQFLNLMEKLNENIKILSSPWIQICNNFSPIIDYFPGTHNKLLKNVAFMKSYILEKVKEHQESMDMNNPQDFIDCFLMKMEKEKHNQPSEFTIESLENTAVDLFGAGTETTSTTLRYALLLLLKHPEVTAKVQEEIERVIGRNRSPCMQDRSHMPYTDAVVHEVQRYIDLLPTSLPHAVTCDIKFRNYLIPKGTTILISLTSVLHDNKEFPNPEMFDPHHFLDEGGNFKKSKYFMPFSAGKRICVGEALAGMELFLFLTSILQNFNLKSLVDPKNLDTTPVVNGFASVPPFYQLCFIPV

[24] = Drug recovery in plasma (unknown origin); assay type: ADME, cell-free
Cytochrome P450 3A4 = Cytochrome P450 3A4 (Homo sapiens, UniProt P08684); test: Inhibition of CYP3A4 (unknown origin); assay type: ADME
Chain of Cytochrome P450 3A4 (P08684 whole entry): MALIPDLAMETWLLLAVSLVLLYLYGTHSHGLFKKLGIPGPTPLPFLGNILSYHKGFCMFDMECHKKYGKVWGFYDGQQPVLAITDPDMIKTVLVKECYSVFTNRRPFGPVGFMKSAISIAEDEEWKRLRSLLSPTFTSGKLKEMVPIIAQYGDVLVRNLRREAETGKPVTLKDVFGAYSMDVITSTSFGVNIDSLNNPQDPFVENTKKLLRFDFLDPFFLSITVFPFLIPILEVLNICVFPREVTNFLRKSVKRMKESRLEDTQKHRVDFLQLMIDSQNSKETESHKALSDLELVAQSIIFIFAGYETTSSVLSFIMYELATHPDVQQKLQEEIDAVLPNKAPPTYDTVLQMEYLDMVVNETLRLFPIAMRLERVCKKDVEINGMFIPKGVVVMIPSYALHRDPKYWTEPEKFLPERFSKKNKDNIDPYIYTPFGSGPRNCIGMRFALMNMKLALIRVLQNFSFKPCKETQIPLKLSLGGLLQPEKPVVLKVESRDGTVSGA

Mus musculus [25] = test: Toxicity in nude BALB/c mouse xenografted with human A2780 cells assessed as change in body weight at 15 mg/kg, po administered every other day measured up to 12 days post dose; assay type: organism-based; settings: in vivo, 288 h
[26] = Toxicity in mouse administered as single po dose; assay type: organism-based; settings: in vivo
[27] = Stability in human plasma assessed as parent compound remaining after 24 hrs relative to initial time; assay type: ADME, cell-free; settings: read-out: Stability
BT-549 [28] = test: Antiproliferative activity against paclitaxel-resistant human BT549 cells 10A clone up to 1000 nM after 72 hrs by ATPlite assay; assay type: functional, cell-based
Cytochrome P450 1A2 = molecular target: T1, Cytochrome P450 1A2 (Homo sapiens, UniProt P05177); test: Inhibition of CYP1A2 (unknown origin); assay type: ADME
T1 sequence (P05177 whole entry): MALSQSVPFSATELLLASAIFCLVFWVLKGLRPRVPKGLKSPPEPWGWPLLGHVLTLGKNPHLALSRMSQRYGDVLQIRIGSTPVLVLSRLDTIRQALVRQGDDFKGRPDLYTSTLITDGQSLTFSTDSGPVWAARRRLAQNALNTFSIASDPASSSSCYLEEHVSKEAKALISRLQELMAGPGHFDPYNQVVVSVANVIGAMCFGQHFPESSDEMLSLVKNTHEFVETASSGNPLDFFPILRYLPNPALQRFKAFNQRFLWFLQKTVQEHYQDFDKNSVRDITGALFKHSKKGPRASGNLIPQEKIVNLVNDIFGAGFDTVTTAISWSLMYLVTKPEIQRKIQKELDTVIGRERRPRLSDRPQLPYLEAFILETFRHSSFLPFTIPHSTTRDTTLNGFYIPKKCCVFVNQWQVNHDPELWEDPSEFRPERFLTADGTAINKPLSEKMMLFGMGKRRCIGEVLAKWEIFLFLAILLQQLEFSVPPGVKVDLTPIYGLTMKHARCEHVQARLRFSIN

MDA-MB-436 [29] = test: Antiproliferative activity against paclitaxel-resistant human MDA-MB-436 cells 20A clone up to 1000 nM after 72 hrs by ATPlite assay; assay type: functional, cell-based
[30] = Stability in human plasma assessed as parent compound remaining after 2 hrs relative to initial time; assay type: ADME, cell-free; settings: read-out: Stability
Cytochrome P450 2C19 = Cytochrome P450 2C19 (Homo sapiens, UniProt P33261); test: Inhibition of CYP2C19 (unknown origin); assay type: ADME
Chain of Cytochrome P450 2C19 (P33261 whole entry): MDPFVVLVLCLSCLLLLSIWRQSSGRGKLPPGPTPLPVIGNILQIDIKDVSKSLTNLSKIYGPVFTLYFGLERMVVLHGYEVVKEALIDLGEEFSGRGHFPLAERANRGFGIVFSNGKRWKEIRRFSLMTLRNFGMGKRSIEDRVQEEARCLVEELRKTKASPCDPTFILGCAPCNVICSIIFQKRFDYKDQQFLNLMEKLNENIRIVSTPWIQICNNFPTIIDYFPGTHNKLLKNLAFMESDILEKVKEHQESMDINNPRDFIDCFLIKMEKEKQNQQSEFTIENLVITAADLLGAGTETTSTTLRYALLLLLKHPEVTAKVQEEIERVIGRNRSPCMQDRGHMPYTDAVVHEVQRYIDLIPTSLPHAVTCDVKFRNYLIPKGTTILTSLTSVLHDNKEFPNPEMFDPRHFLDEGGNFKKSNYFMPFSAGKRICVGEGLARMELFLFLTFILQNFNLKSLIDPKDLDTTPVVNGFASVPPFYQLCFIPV

MDA-MB-436 [31] = test: Antiproliferative activity against human MDA-MB-436 cells up to 1000 nM after 72 hrs by ATPlite assay; assay type: functional, cell-based
[32] = Half life in rat liver microsomes; assay type: ADME, microsome
A2780 [33] = test: Antitumor activity against human A2780 cells xenografted in nude BALB/c mouse assessed as tumor growth inhibition at 20 mg/kg, po qd measured up to 12 days post dose; assay type: functional, organism-based
Mus musculus [34] = test: Toxicity in nude BALB/c mouse xenografted with human MFE296 cells assessed as body weight loss at 3.75 to 7.5 mg/kg, po qd administered via gavage for 10 days; assay type: organism-based; settings: in vivo, 240 h
[35] = Toxicity in mouse; assay type: organism-based; settings: in vivo
Mus musculus [36] = test: Toxicity in nude BALB/c mouse xenografted with human A2780 cells assessed as change in body weight at 20 mg/kg, po qd measured up to 12 days post dose; assay type: organism-based; settings: in vivo, 288 h
MFE-296 [37] = test: Antitumor activity against human MFE296 cells xenografted in nude BALB/c mouse assessed as tumor growth inhibition at 3.75 to 7.5 mg/kg, po qd administered via gavage for 10 days relative to control; assay type: functional
BT-549 [38] = test: Antiproliferative activity against human BT549 cells up to 1000 nM after 72 hrs by ATPlite assay; assay type: functional, cell-based
[39] = Stability in human plasma assessed as parent compound remaining after 8 hrs relative to initial time; assay type: ADME, cell-free; settings: read-out: Stability
Breast carcinoma cell [40] = test: Antitumor activity against chemo-refractory disease patient-derived breast cancer cells xenografted in NOD/SCID mouse assessed as tumor growth inhibition at 20 mg/kg, iv administered weekly for 15 days; assay type: functional, organism-based; settings: Homo sapiens

CNC(=C[N+](=O)[O-])NCCSCc1ccc(CN(C)C)o1 [RANITIDINE]
Papp A→B at 2 h (in vitro [1]): 0.87 ×10⁻⁶ cm/s
Papp B→A at 2 h (in vitro [2]): 2.83 ×10⁻⁶ cm/s
efflux ratio at 2 h [3]: 3.24

Cc1ncc(C(=O)Nc2ccc(-c3cccc(S(=O)(=O)C4CC4)c3)cn2)cn1
half-life [4]: 0.832 h
Activity (Mus musculus [5]): Toxic
TGI (SNU-16 [6]): 109%
TGI (Breast carcinoma cell [7]): Active
TGI (A2780 [8]): Active
Activity (Mus musculus [9]): Non-Toxic
Activity (Breast carcinoma cell [10]): Active
Tmax [11]: ≤ 0.25 h
Activity (Hs-578T [12]): Active
fraction unbound [13]: 0.022
Papp A→B at 2 h (in vitro [1]): 25.7 ×10⁻⁶ cm/s
Activity (Hs-578T [14]): Active
IC50 (Cytochrome P450 2D6): > 30 µM
TGI (SNU-16 [15]): Active
TGI (MFE-296 [16]): Active
Papp B→A at 2 h (in vitro [2]): 26.1 ×10⁻⁶ cm/s
half-life [17]: 2.41 h
remaining at 1.25 h [18]: 93%
Activity (MDA-MB-436 [19]): Active
efflux ratio at 2 h [3]: 1.02
fraction unbound [20]: 0.022
remaining at 4 h [21]: 103%
half-life [22]: 1.12 h
Activity (Hs-578T [23]): Active
IC50 (Cytochrome P450 2C9): > 30 µM
Drug recovery [24]: 87.2%
IC50 (Cytochrome P450 3A4): > 30 µM
Activity (Mus musculus [25]): Non-Toxic
MTD [26]: ≤ 20 mg/kg
remaining at 24 h [27]: 115%
Activity (BT-549 [28]): Active
IC50 (Cytochrome P450 1A2): > 30 µM
Activity (MDA-MB-436 [29]): Active
remaining at 2 h [30]: 111%
IC50 (Cytochrome P450 2C19): > 30 µM
Activity (MDA-MB-436 [31]): Active
half-life [32]: 1.33 h
TGI (A2780 [33]): Active
Activity (Mus musculus [34]): Non-Toxic
MTD [35]: ≤ 6 mg/kg
Activity (Mus musculus [36]): Toxic
TGI (MFE-296 [37]): >85%
Activity (BT-549 [38]): Active
remaining at 8 h [39]: 102%

COC(=O)c1ccccc1-c1c2ccc(=N)cc-2oc2cc(N)ccc12.Cl [RHODAMINE123]
Papp A→B at 2 h (in vitro [1]): 0.61 ×10⁻⁶ cm/s
Papp B→A at 2 h (in vitro [2]): 7.17 ×10⁻⁶ cm/s
efflux ratio at 2 h [3]: 11.7

CC(=O)O[C@H]1C(=O)[C@@]2(C)[C@H]([C@H](OC(=O)c3ccccc3)[C@]3(O)C[C@H](OC(=O)[C@H](O)[C@@H](NC(=O)c4ccccc4)c4ccccc4)C(C)=C1C3(C)C)[C@]1(OC(C)=O)CO[C@@H]1C[C@@H]2O
Activity (Hs-578T [12]): inactive
Activity (Hs-578T [14]): Active
TGI (Breast carcinoma cell [40]): inactive
Activity (MDA-MB-436 [19]): inactive
Activity (Hs-578T [23]): inactive
Activity (BT-549 [28]): inactive
Activity (MDA-MB-436 [29]): inactive
Activity (MDA-MB-436 [31]): Active
Activity (BT-549 [38]): Active

O=C(Nc1ccc(-c2cccc(Cl)c2)cn1)c1cncnc1
TGI (SNU-16 [6]): 66%
MTD [35]: ≤ 6 mg/kg

Cc1ccc(C(=O)Nc2ccc(-c3cccc(C4COC4)c3)cn2)cn1
TGI (SNU-16 [6]): 69%
Tmax [11]: ≤ 0.25 h
MTD [35]: ≤ 6 mg/kg

CC(C)[N+](C)(CCOC(=O)C1c2ccccc2Oc2ccccc21)C(C)C [PROPANTHELINE]
remaining at 1.25 h [18]: 13.9%
remaining at 4 h [21]: 0.34%
remaining at 2 h [30]: 5.16%
